Data set [1] can be described thus: Light stability in MCT oil (HPLC % area). Format: physicochemical. The conditions noted are these: 24 hours light exposure. How it is done:
(§1) The light stability of MK-7 was compared to compounds of the invention as hereinbefore described. Compounds were dissolved separately in ethyl acetate or MCT oil, transferred to glass vial (clear glass) and placed on the bench in a well lit laboratory (ordinary room lighting). The samples were analyzed after 19 hours of light exposure or more.
(§2) The samples were analyzed by HPLC using aHPLC_KB_001, with the HPLC conditions detailed below. • HPLC-DAD high pressure system: Agilent, LC system 1100 series • Analytical column: Supelcosil C-18, 4.6×250 mm, 5 μm • Column temperature: 40° C. • Flow rate: 1 mL/min • Injection volume: 8 μL • UV-detection: 270 nm/340 nm • Run time: 20 min • Eluent system: 50% Solvent C: MeOH/Water with 0.1% v/v acetic acid (95/5 v/v) 50% Solvent D: Isopropanol
(§3) The content of MK-7 and the MK-7 derivative in the samples have been quantified as % area of the total peak area in the chromatogram. […] Note that examples 2a and 2b show the synergistic behaviour discussed after table 2.

A short description of data set [2]: Calcium salt composition: recovery from tablet after direct compression. Format: physicochemical. Conditions: for compatibility with calcium in the formulation process: formulated together with calcium salts; for recovered from the tablet after formulation: magnesium stearate, MCC, compared to amount pre-formulation. How it is done:
We combined 47 mg of a 0.19 wt % formulation of the MK-7 derivative of Example 16 (diacetate) in microcrystalline cellulose MCC with 645 mg of 90 wt % calcium carbonate, […] of magnesium stearate and 745 mg of MCC and formulated tablets of this blend using direct compression.
After formulation we recovered the MK-7 derivative from the tablet. We recovered 88 wt % of the derivative from the tablet.
The same experiment was repeated using identical conditions other than the use of MK-7 rather than the MK-7 derivative. We recovered 77.6 wt % of MK7 from the tablet compared to the amount pre-formulation. We show therefore that the loss of MK7 during tableting process is 23%.

The nature of data set [3]: Light stability in ethyl acetate (HPLC % area). Format: physicochemical. The conditions noted are these: for After 19 hrs % / Initial %: clear glass vial; for After 19 hrs %: 19 hours ordinary room lighting, HPLC % area; for Initial %: before light exposure, HPLC % area of total peak area. The method, then: as §1, §2, §3
Data set [4] in a line: In vivo testing in rats: MK-7 in plasma after oral gavage. Also on record: species or system male Sprague Dawley Rats. The method, then:
Male Rats aged 6 to 8 weeks and weighing around 180 to 225 g. Animals were fasted overnight with free access to water. Animals were administered test substance by oral gavage with a dose of 100 μg/kg body weight (in recommended formulation and dose volume). Blood samples (150-200 μl) were collected at various time points during the next 48 hours post dose. To determine the bioavailability of different formulations containing MK-7 in male e Sprague Dawley Rats through gavage. Formulations were both dissolved in sunflower oil. Approximately 0.4 ml/animal (depending on the weight of the animal) via oral gavage (100 μg/kg body weight). There were 6 animals per formulation. Blood samples were collected from the tail vein of each animal and transferred into lithium heparin tubes at 2 and 12 hours post dose. Quantification of analyte in plasma was determined by LC-MS-MS analysis: Analyte: MK-7 in plasma. The data are mean of four measurements (low and high values are not included).

Setting [5] is: tablet with calcium carbonate, direct compression.

Take `CC(C)=CCC/C(C)=C/CC/C(C)=C/CC/C(C)=C/CC/C(C)=C/CC/C(C)=C/CC/C(C)=C/CC1=C(C)C(=O)c2ccccc2C1=O` [MK-7, 2-((2E,6E,10E,14E,18E,22E)-3,7,11,15,19,23,27-Heptamethyloctacosa-2,6,10,14,18,22,26-heptaen-1-yl)-3-methylnaphthalene-1,4-dione]: in data set [1], the “degradation after 24 hours of light exposure” value was “approximately 70%”. Moreover, in data set [2] (directly compressed with excipients such as calcium or magnesium), the “reduction in the amount present after tabletting” value was “up to 30%”. Also, the “compatibility with calcium in the formulation process” value (“compatibility with calcium” for short) in data set [2] is “degrades rapidly”. Moreover, in data set [2] (listed as MK7), the “compatibility with calcium” value is given as “degrades in the formulation process together with calcium”. In data set [2] (setting [5]), the “loss during tableting process” value stood at 23% and the “recovered from the tablet after formulation” value turned out to be 77.6 wt %. Besides, in data set [3] (in ethyl acetate), the “light degradation in ethyl acetate compared with MCT oil” value is given as “degrades even more rapidly”, the “After 19 hrs %” value is recorded as 53.7% and the Initial % is given as 99.4%. Moreover, in data set [3] (in solution (ethyl acetate, Table 1), 19 hours light exposure), the “degradation after 19 hours of light exposure” value is “approximately 50%”.
In the case of `CC(C)=CCC/C(C)=C/CC/C(C)=C/CC/C(C)=C/CC/C(C)=C/CC/C(C)=C/CC/C(C)=C/Cc1c(C)c(OC(=O)c2ccccc2)c2ccccc2c1OC(=O)c1ccccc1` [Example 1, 2-((2E,6E,10E,14E,18E,22E)-3,7,11,15,19,23,27-heptamethyl-octacosa-2,6,10,14,18,22,26-heptaen-1-yl)-3-methylnaphthalene-1,4-diyl dibenzoate], in data set [3] (in ethyl acetate), the “After 19 hrs %” value worked out at 95.4% and the Initial % is on record as 98.5%.
On to `CC(=O)Oc1c(C)c(C/C=C(\C)CC/C=C(\C)CC/C=C(\C)CC/C=C(\C)CC/C=C(\C)CC/C=C(\C)CCC=C(C)C)c(OC(C)=O)c2ccccc12` [Example 16], for which, in data set [2], the “compatibility with calcium” value is on record as “more compatible with calcium than MK7”. In addition, the “recovered from the tablet after formulation” value in data set [2] (setting [5]) was determined as 88 wt %. For the same compound, in data set [3] (in ethyl acetate), the “After 19 hrs %” value is on record as 92.7% and the Initial % is listed as 93.1%.
Consider `CCC(=O)Oc1c(C)c(C/C=C(\C)CC/C=C(\C)CC/C=C(\C)CC/C=C(\C)CC/C=C(\C)CC/C=C(\C)CCC=C(C)C)c(OC(=O)CC)c2ccccc12` [Example 7, 2-((2E,6E,10E,14E,18E,22E)-3,7,11,15,19,23,27-heptamethyloctacosa-2,6,10,14,18,22,26-heptaen-1-yl)-3-methylnaphthalene-1,4-diyl dipropionate], for which, in data set [4], the “serum level 12 hours after administration compared with MK-7” value is reported as “the same”.

Source of the values: patent US20160184254A1, “COMPOSITIONS COMPRISING VITAMIN K DERIVATIVES AND SALTS” (KAPPA BIOSCIENCE AS, priority 2013, published 2016).
